{"source": "PubChem BioAssay (NCI)", "test_in_all_cases": "DTP human tumour cell line panel, 48 h", "key": {"786-0 renal": {"system": "786-0 renal"}, "A498 renal": {"system": "A498 renal"}, "A549 NSCLC": {"system": "A549 NSCLC"}, "ACHN renal": {"system": "ACHN renal"}, "BT-549 breast": {"system": "BT-549 breast"}, "CAKI-1 renal": {"system": "CAKI-1 renal"}, "CCRF-CEM leukemia": {"system": "CCRF-CEM leukemia"}, "COLO 205 colon": {"system": "COLO 205 colon"}, "DU-145 prostate": {"system": "DU-145 prostate"}, "EKVX NSCLC": {"system": "EKVX NSCLC"}, "HCC-2998 colon": {"system": "HCC-2998 colon"}, "HCT-116 colon": {"system": "HCT-116 colon"}, "HCT-15 colon": {"system": "HCT-15 colon"}, "HL-60(TB) leukemia": {"system": "HL-60(TB) leukemia"}, "HOP-62 NSCLC": {"system": "HOP-62 NSCLC"}, "HOP-92 NSCLC": {"system": "HOP-92 NSCLC"}, "HS 578T breast": {"system": "HS 578T breast"}, "HT29 colon": {"system": "HT29 colon"}, "IGROV1 ovarian": {"system": "IGROV1 ovarian"}, "K-562 leukemia": {"system": "K-562 leukemia"}, "KM12 colon": {"system": "KM12 colon"}, "LOX IMVI melanoma": {"system": "LOX IMVI melanoma"}, "M14 melanoma": {"system": "M14 melanoma"}, "MALME-3M melanoma": {"system": "MALME-3M melanoma"}, "MCF7 breast": {"system": "MCF7 breast"}, "MDA-MB-231 breast": {"system": "MDA-MB-231 breast"}, "MDA-MB-435": {"system": "MDA-MB-435"}, "MDA-MB-468 breast": {"system": "MDA-MB-468 breast"}, "MOLT-4 leukemia": {"system": "MOLT-4 leukemia"}}, "note": "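Results reflect a 48-hour exposure of cells in 96-well plates to compound at five concentrations. The concentration for 50% growth inhibition is given as GI50. TGI denotes the concentration required for complete inhibition of growth.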"}
{"smiles": "C=C1CC[C@@H]2[C@]3(C)COC(c4ccccc4)O[C@@H]3CC[C@@]2(C)[C@@H]1C/C=C1/C(=O)OCC1OC(C)=O", "note": "(stereo partly drawn)", "values": [{"measurement": "GI50", "setting": "786-0 renal", "value": 12.5, "unit": "µM"}, {"measurement": "TGI", "setting": "786-0 renal", "value": 25.4, "unit": "µM"}, {"measurement": "GI50", "setting": "A498 renal", "value": 19.9, "unit": "µM"}, {"measurement": "TGI", "setting": "A498 renal", "value": 35.7, "unit": "µM"}, {"measurement": "GI50", "setting": "A549 NSCLC", "value": 15.4, "unit": "µM"}, {"measurement": "TGI", "setting": "A549 NSCLC", "value": 32.3, "unit": "µM"}, {"measurement": "GI50", "setting": "ACHN renal", "value": 8.95, "unit": "µM"}, {"measurement": "TGI", "setting": "ACHN renal", "value": 21, "unit": "µM"}, {"measurement": "GI50", "setting": "BT-549 breast", "value": 2.67, "unit": "µM"}, {"measurement": "TGI", "setting": "BT-549 breast", "value": 10, "unit": "µM"}, {"measurement": "GI50", "setting": "CAKI-1 renal", "value": 12.2, "unit": "µM"}, {"measurement": "TGI", "setting": "CAKI-1 renal", "value": 24.7, "unit": "µM"}, {"measurement": "GI50", "setting": "CCRF-CEM leukemia", "value": 2.54, "unit": "µM"}, {"measurement": "TGI", "setting": "CCRF-CEM leukemia", "value": 10.9, "unit": "µM"}, {"measurement": "GI50", "setting": "COLO 205 colon", "value": 17.5, "unit": "µM"}, {"measurement": "TGI", "setting": "COLO 205 colon", "value": 36.1, "unit": "µM"}, {"measurement": "GI50", "setting": "DU-145 prostate", "value": 13.6, "unit": "µM"}, {"measurement": "TGI", "setting": "DU-145 prostate", "value": 27.2, "unit": "µM"}, {"measurement": "GI50", "setting": "EKVX NSCLC", "value": 10.7, "unit": "µM"}, {"measurement": "TGI", "setting": "EKVX NSCLC", "value": 22.6, "unit": "µM"}, {"measurement": "GI50", "setting": "HCC-2998 colon", "value": 13.9, "unit": "µM"}, {"measurement": "TGI", "setting": "HCC-2998 colon", "value": 26.9, "unit": "µM"}, {"measurement": "GI50", "setting": "HCT-116 colon", "value": 2.25, "unit": "µM"}, {"measurement": "TGI", "setting": "HCT-116 colon", "value": 5.78, "unit": "µM"}, {"measurement": "GI50", "setting": "HCT-15 colon", "value": 4.3, "unit": "µM"}, {"measurement": "TGI", "setting": "HCT-15 colon", "value": 16.3, "unit": "µM"}, {"measurement": "GI50", "setting": "HL-60(TB) leukemia", "value": 7.37, "unit": "µM"}, {"measurement": "TGI", "setting": "HL-60(TB) leukemia", "value": 39.2, "unit": "µM"}, {"measurement": "GI50", "setting": "HOP-62 NSCLC", "value": 16, "unit": "µM"}, {"measurement": "TGI", "setting": "HOP-62 NSCLC", "value": 31.2, "unit": "µM"}, {"measurement": "GI50", "setting": "HOP-92 NSCLC", "value": 10.4, "unit": "µM"}, {"measurement": "TGI", "setting": "HOP-92 NSCLC", "value": 23.4, "unit": "µM"}, {"measurement": "GI50", "setting": "HS 578T breast", "value": 20.5, "unit": "µM"}, {"measurement": "TGI", "setting": "HS 578T breast", "value": 67.4, "unit": "µM"}, {"measurement": "GI50", "setting": "HT29 colon", "value": 3.63, "unit": "µM"}, {"measurement": "TGI", "setting": "HT29 colon", "value": 13.7, "unit": "µM"}, {"measurement": "GI50", "setting": "IGROV1 ovarian", "value": 14.4, "unit": "µM"}, {"measurement": "TGI", "setting": "IGROV1 ovarian", "value": 27.8, "unit": "µM"}, {"measurement": "GI50", "setting": "K-562 leukemia", "value": 3.72, "unit": "µM"}, {"measurement": "TGI", "setting": "K-562 leukemia", "value": "> 100", "unit": "µM"}, {"measurement": "GI50", "setting": "KM12 colon", "value": 10.6, "unit": "µM"}, {"measurement": "TGI", "setting": "KM12 colon", "value": 25.7, "unit": "µM"}, {"measurement": "GI50", "setting": "LOX IMVI melanoma", "value": 1.8, "unit": "µM"}, {"measurement": "TGI", "setting": "LOX IMVI melanoma", "value": 3.61, "unit": "µM"}, {"measurement": "GI50", "setting": "M14 melanoma", "value": 7.44, "unit": "µM"}, {"measurement": "TGI", "setting": "M14 melanoma", "value": 20.9, "unit": "µM"}, {"measurement": "GI50", "setting": "MALME-3M melanoma", "value": 17.1, "unit": "µM"}, {"measurement": "TGI", "setting": "MALME-3M melanoma", "value": 33.1, "unit": "µM"}, {"measurement": "GI50", "setting": "MCF7 breast", "value": 3.34, "unit": "µM"}, {"measurement": "TGI", "setting": "MCF7 breast", "value": 15.5, "unit": "µM"}, {"measurement": "GI50", "setting": "MDA-MB-231 breast", "value": 10.9, "unit": "µM"}, {"measurement": "TGI", "setting": "MDA-MB-231 breast", "value": 23, "unit": "µM"}, {"measurement": "GI50", "setting": "MDA-MB-435", "value": 10.4, "unit": "µM"}, {"measurement": "TGI", "setting": "MDA-MB-435", "value": 22.5, "unit": "µM"}, {"measurement": "GI50", "setting": "MDA-MB-468 breast", "value": 5.05, "unit": "µM"}, {"measurement": "TGI", "setting": "MDA-MB-468 breast", "value": 19, "unit": "µM"}, {"measurement": "GI50", "setting": "MOLT-4 leukemia", "value": 4.43, "unit": "µM"}, {"measurement": "TGI", "setting": "MOLT-4 leukemia", "value": 28.6, "unit": "µM"}]}
